Laboratory results as given in ChEMBL document CHEMBL1201862, “PubChem BioAssay data set” (2004).
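Cultured in 96-well plates, cells were exposed to test compound for 48 hours across five concentrations. GI50 = concentration required for 50% inhibition of growth.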 Calls of active or inactive are those of the source. Cut-off read from the data, not from the text of the source: active = GI50 up to about 1.1 µM and inactive = higher.

Legend:
Test in all cases: DTP human tumour cell line panel, 48 h
HT-29 = test system: HT-29
SN12C = test system: SN12C
DMS-273 = test system: DMS-273
UO-31 = test system: UO-31
SK-OV-3 = test system: SK-OV-3
HCT-15 = test system: HCT-15
Malme-3M = test system: Malme-3M
OVCAR-4 = test system: OVCAR-4
TK-10 = test system: TK-10
IGROV-1 = test system: IGROV-1
786-0 = test system: 786-0
OVCAR-3 = test system: OVCAR-3
OVCAR-8 = test system: OVCAR-8
RXF 393 = test system: RXF 393
CCRF-CEM = test system: CCRF-CEM
M14 = test system: M14
U-251 = test system: U-251
A498 = test system: A498

Measured: GI50

O=C(NCCCCCCCCNC(=O)c1cnc2ccccc2n1)c1cnc2ccccc2n1
> 100 µM: HCT-15
inactive: HT-29 > 100 µM | SN12C > 100 µM | DMS-273 > 100 µM | UO-31 > 100 µM | SK-OV-3 > 100 µM | Malme-3M > 100 µM | OVCAR-4 > 100 µM | TK-10 > 100 µM | IGROV-1 > 100 µM | 786-0 > 100 µM | OVCAR-3 > 100 µM | OVCAR-8 > 100 µM | RXF 393 > 100 µM | CCRF-CEM > 100 µM | M14 > 100 µM | U-251 > 100 µM | A498 > 100 µM

CCCCCCCCCCCCCCCCCC[N+](C)(C)Cc1ccc(C[N+](C)(C)CCCCCCCCCCCCCCCCCC)cc1
inactive: HT-29 18.7 µM | SN12C 10.9 µM | DMS-273 16.1 µM | UO-31 27.7 µM | SK-OV-3 26.6 µM | Malme-3M 24.3 µM | OVCAR-4 9.53 µM | TK-10 13.6 µM | IGROV-1 16.6 µM | 786-0 12.7 µM | OVCAR-3 7.01 µM | OVCAR-8 6.5 µM | RXF 393 2.71 µM | CCRF-CEM 16.9 µM | M14 17.3 µM | U-251 7.98 µM | A498 22.8 µM
28 µM: HCT-15

OCCN1CCN2C=C(C3CCCC4N(CCO)CCN34)CCC21 (stereo not drawn)
27.9 µM: HCT-15
inactive: HT-29 68.9 µM | SN12C 39.5 µM | DMS-273 49.2 µM | UO-31 97.3 µM | SK-OV-3 > 69.2 µM | Malme-3M > 79.8 µM | OVCAR-4 52.8 µM | TK-10 > 53.5 µM | IGROV-1 76 µM | 786-0 41.7 µM | OVCAR-3 35.4 µM | OVCAR-8 35.2 µM | RXF 393 20.3 µM | CCRF-CEM 5.56 µM | M14 44.7 µM | U-251 41.4 µM | A498 > 100 µM

Cc1nc2ccccc2c(=O)n1-c1ccccc1F
> 100 µM: HCT-15
inactive: HT-29 > 100 µM | SN12C > 100 µM | DMS-273 > 100 µM | UO-31 74.3 µM | SK-OV-3 > 100 µM | Malme-3M > 100 µM | OVCAR-4 > 100 µM | TK-10 > 100 µM | IGROV-1 > 100 µM | 786-0 > 100 µM | OVCAR-3 > 100 µM | OVCAR-8 > 100 µM | RXF 393 > 100 µM | CCRF-CEM > 100 µM | M14 > 100 µM | U-251 > 100 µM | A498 > 100 µM

Cc1ccc(S(=O)(=O)N2CCC3(C(/C=C/c4ccccc4)=Nc4ccccc43)C2c2ccccc2)cc1 (stereo not drawn)
> 100 µM: HCT-15
inactive: HT-29 > 100 µM | SN12C > 100 µM | DMS-273 > 100 µM | UO-31 61.7 µM | SK-OV-3 > 100 µM | Malme-3M > 100 µM | OVCAR-4 > 100 µM | TK-10 > 100 µM | IGROV-1 1.41 µM | 786-0 > 100 µM | OVCAR-3 > 100 µM | OVCAR-8 > 100 µM | RXF 393 > 100 µM | CCRF-CEM > 100 µM | M14 > 100 µM | U-251 > 100 µM | A498 > 100 µM

Cc1nc(Nc2ccc(Cl)cc2)sc1C(=O)NNC(=S)NN
inactive: SN12C 18.1 µM | DMS-273 18.6 µM | UO-31 15.8 µM | SK-OV-3 27.4 µM | Malme-3M 19.7 µM | OVCAR-4 17.7 µM | TK-10 20.9 µM | IGROV-1 25.9 µM | 786-0 16.6 µM | OVCAR-3 19.3 µM | OVCAR-8 21.3 µM | RXF 393 12.7 µM | CCRF-CEM 29.1 µM | M14 19.7 µM | U-251 17.5 µM | A498 15.3 µM
20.4 µM: HCT-15

Cn1nc(-c2ccccc2)c(N=[N+]=[N-])cc1=O
inactive: HT-29 > 100 µM | SN12C > 100 µM | DMS-273 > 100 µM | UO-31 > 100 µM | SK-OV-3 1.59 µM | Malme-3M > 100 µM | OVCAR-4 > 100 µM | TK-10 > 100 µM | IGROV-1 > 100 µM | 786-0 > 100 µM | OVCAR-3 > 100 µM | OVCAR-8 > 100 µM | RXF 393 > 100 µM | CCRF-CEM > 100 µM | M14 > 100 µM | U-251 > 100 µM | A498 > 100 µM
> 100 µM: HCT-15

CCCCCCCCCCCCCC(=O)OCC1OC(n2cc(F)c(=O)[nH]c2=O)C(NC(=O)OCc2ccccc2)C(OC(=O)CCCCCCCCCCCCC)C1O (stereo not drawn)
inactive: HT-29 > 100 µM | SN12C > 100 µM | DMS-273 > 100 µM | UO-31 > 100 µM | SK-OV-3 > 100 µM | Malme-3M > 100 µM | OVCAR-4 > 100 µM | TK-10 > 100 µM | IGROV-1 > 100 µM | 786-0 > 100 µM | OVCAR-3 > 100 µM | OVCAR-8 > 100 µM | RXF 393 > 100 µM | CCRF-CEM > 100 µM | M14 > 100 µM | U-251 > 100 µM | A498 > 100 µM
> 100 µM: HCT-15
